Source: PMC8294059, “Identification and Immune Assessment of T Cell Epitopes in Five Plasmodium falciparum Blood Stage Antigens to Facilitate Vaccine Candidate Selection and Optimization” (Frontiers in Immunology, 2021)
Read-outs that look alike come from different tables or passages of the source. Where a SMILES comes first, the peptide text is derived from it.

Tests used:
HLA-DRB1*0701 = HLA-DRB1*0701 (Homo sapiens, UniProt P01903+P01911, A100R/A102G/A103Q/D57E/D86V/E43K/F76Y/K127E/L162R/M171V/P40G/Q125H/Q99D/R33Q/R42Y/R54Q/S133A/S66F/T210M/V115G/Y107V/Y59L/Y89S); test: biochemical; assay type: binding
Description: (§1) The binding assay conducted by EpiVax yields an indirect measure of peptide-MHC affinity as it utilizes a competition assay format per the methodology described in Steere et al. ([35]). […] Post incubation, the mixtures are moved to a 96-well plate coated with anti-HLA-DR antibody to capture HLA-peptide complexes. Time-resolved fluorescence measurement of the bound labeled reference peptide complex present in each mixture is detected with a europium-linked probe via fluorescent spectrophotometry using a SpectraMax M5 system. HLA binding affinity of each test peptide is expressed as the percent inhibition of reference peptide binding. Percent inhibition values (across the test peptide titration range) are used to calculate the half maximal inhibitory concentration (IC50) of each test peptide. For these studies, test peptides were assessed using a range of final concentrations from 100,000 nM to 100 nM. The panel of commercially-available HLA-DRB1 allele monomers used includes: *0101, *0301, *0401, *0701, *0801, *1101, *1301 and *1501. EpiVax established HLA-DRB1 binding affinity cutoffs were used to rank the IC50 values.
(§2) In vitro HLA binding assays (step 2 of workflow shown in Figure 1 ) were carried out with the synthesized peptides to verify the EpiMatrix outputs and provide a measure of accuracy for comparing in silico-predicted HLA-DRB1 allele binding to laboratory assessments of HLA-DRB1 allele binding. These assessments were conducted using a competition assay format whereby IC50 values were calculated based on the ability of the test peptide to compete with a labeled, high binding affinity reference peptide for HLA-DRB1 molecule binding. Sequences for the high affinity reference peptides and the negative control peptide, known not to bind any of the HLA-DRB1 molecules, are provided in Table S18 .

HLA-DRB1*1301 = HLA-DRB1*1301 (Homo sapiens, UniProt P01903+P01911, A100E/A169T/K41T/L162R/M171V/P40S/Q125H/Q178H/Q39Y/Q99D/R42S/S66N/T262R/W38E/Y61H); test: biochemical; assay type: binding; conditions: read-out: DRB1*1301 IC50
Description: as §1, §2

HLA-DRB1*1501 = target: T1, HLA-DRB1*1501 (Homo sapiens, UniProt P01903+P01911); test: biochemical; assay type: binding
T1 construct: purchased
Description: as §1, §2

HLA-DRB1*0101 = target: T2, HLA-DRB1*0101 (Homo sapiens, UniProt P01903+P01911, A100R/D57E/F55L/F60I/F76Y/I96L/L162R/M171V/P40L/Q125E/R42F/V115G/Y59C); test: biochemical; assay type: binding
T2 construct: purchased
Description: as §1, §2

HLA-DRB1*0801 = HLA-DRB1*0801 (Homo sapiens, UniProt P01903+P01911, A100R/A103L/A169T/D86S/F76Y/H45Y/I96F/K41T/L162R/M171V/P40S/Q125H/Q178H/Q39Y/Q99D/R218S/R42G/S66Y/V115G/W38E); test: biochemical; assay type: binding
Description: as §1, §2

HLA-A*0201 = HLA-A*0201 (Homo sapiens, UniProt P04439, D140Y/D185E/D98H/E176V/E277Q/G131W/G231S/I119V/I121R/I166T/I218V/L300P/L318F/N151K/N90K/P208A/P217A/Q86G/Q94H/R138H/R169H/T345S); test: In vitro class I HLA binding assay (fluorescence polarization competition); conditions: allele A*0201; fluorescence polarization competition; read-out: IC50 (nM), in vitro HLA binding affinity
Description: A cell-free class I HLA binding assay that allows for in vitro quantification of peptide-HLA binding affinity in a competition format was used. In this assay, a fluorescently labeled, high binding, control peptide is loaded onto 384-well ½-area plates along with unlabeled experimental peptides. To remove endogenous peptides and render the HLA A and B molecules receptive to binding, HLA is heated at 53°C for 15 minutes and immediately added to the assay. The mixture is then allowed to stand for three days. Once the mixture has reached steady equilibrium (at 72 hours), displacement of the high binding control peptide is measured through fluorescence polarization. Binding of experimental peptides is expressed as the percent inhibition of the labeled control peptide (experimental fluorescence / control fluorescence, multiplied by 100). The percent inhibition values for each experimental peptide (across a range of molar concentrations) are used to calculate the concentration which inhibits 50% of the labeled control peptide’s specific binding. This value is referred to as the peptide’s IC50.

HLA-DRB1*1101 = HLA-DRB1*1101 (Homo sapiens, UniProt P01903+P01911, A100R/A169T/A87E/I96F/K41T/L162R/M171V/P40S/Q125H/Q178H/Q39Y/Q99D/R42S/S66Y/T262R/V115G/W38E); test: biochemical; assay type: binding; conditions: binding inhibition assay; NB = non-binder (no dose-dependent inhibition); read-out: DRB1*1101 IC50
Description: as §1, §2

[1] = binding inhibition assay, NB = non-binder (no dose-dependent inhibition), read-out: DRB1*0701 IC50
[2] = binding inhibition assay, NB = non-binder (no dose-dependent inhibition)
[3] = binding inhibition assay, NB = non-binder (no dose-dependent inhibition), read-out: DRB1*1501 IC50
[4] = binding inhibition assay, NB = non-binder (no dose-dependent inhibition), read-out: DRB1*0101 IC50
[5] = binding inhibition assay, NB = non-binder (no dose-dependent inhibition), read-out: DRB1*0801 IC50

Chain of HLA-DRB1*1101 (P01903 26-254 limits assumed, other chains not shown): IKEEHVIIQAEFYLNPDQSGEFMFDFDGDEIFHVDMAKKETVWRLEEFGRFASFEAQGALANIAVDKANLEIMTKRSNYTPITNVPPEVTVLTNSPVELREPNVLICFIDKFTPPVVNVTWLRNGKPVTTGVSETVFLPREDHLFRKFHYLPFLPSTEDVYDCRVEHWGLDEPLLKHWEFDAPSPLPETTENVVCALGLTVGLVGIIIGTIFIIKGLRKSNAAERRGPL

Structure (SMILES): CC[C@H](C)[C@H](NC(=O)[C@H](CCSC)NC(=O)[C@H](CO)NC(=O)[C@H](C)N)C(=O)N[C@@H](CCCCN)C(=O)N[C@@H](CO)C(=O)N[C@@H](C)C(=O)N[C@@H](Cc1ccccc1)C(=O)N[C@@H](CC(C)C)C(=O)N1CCC[C@H]1C(=O)N[C@H](C(=O)NCC(=O)N[C@@H](C)C(=O)N[C@@H](Cc1ccccc1)C(=O)N[C@@H](CCCCN)C(N)=O)[C@@H](C)O [AMA1_006B] (H-ASMIKSAFLPTGAFK-NH2)
- IC50 (HLA-DRB1*0701; [1]): 1.52 µM
- IC50 (HLA-DRB1*1301; [2]): > 100 µM
- IC50 (HLA-DRB1*1501; [3]): 14.5 µM
- IC50 (HLA-DRB1*0101; [4]): 3.22 µM

Structure (SMILES): CC[C@H](C)[C@H](NC(=O)[C@H](CCSC)NC(=O)[C@H](CO)NC(=O)[C@H](C)NC(=O)[C@H](CC(N)=O)NC(=O)[C@H](CCCCN)NC(=O)[C@H](CC(N)=O)NC(=O)[C@H](CCCCN)NC(=O)[C@H](Cc1ccccc1)NC(=O)CNC(=O)[C@H](CCC(=O)O)NC(=O)[C@H](CCCCN)NC(C)=O)C(=O)N[C@@H](CCCCN)C(=O)N[C@@H](CO)C(=O)N[C@@H](C)C(=O)N[C@@H](Cc1ccccc1)C(=O)N[C@@H](CC(C)C)C(=O)N1CCC[C@H]1C(=O)N[C@H](C(=O)NCC(=O)N[C@@H](C)C(=O)N[C@@H](Cc1ccccc1)C(=O)N[C@@H](CCCCN)C(N)=O)[C@@H](C)O [AMA1_006C] (Ac-KEGFKNKNASMIKSAFLPTGAFK-NH2)
- IC50 (HLA-DRB1*0701): 1.29 µM
- IC50 (HLA-DRB1*1301): > 100 µM
- IC50 (HLA-DRB1*1501): 2.04 µM
- IC50 (HLA-DRB1*0801): 50.4 µM
- IC50 (HLA-DRB1*0101): 1.2 µM

Structure (SMILES): CC[C@H](C)[C@H](NC(=O)[C@H](CO)NC(=O)[C@H](CO)NC(=O)[C@H](Cc1ccccc1)NC(=O)[C@H](CC(C)C)NC(=O)[C@@H](N)CC(N)=O)C(=O)N[C@@H](CCC(=O)O)C(=O)N[C@H](C(=O)N[C@H](C(=O)O)C(C)C)[C@@H](C)CC [AMA1_092] (H-NLFSSIEIV-OH)
- IC50 (HLA-A*0201): 1550 nM

Structure (SMILES): CC[C@H](C)[C@H](NC(=O)[C@H](CC(N)=O)NC(=O)[C@H](CC(N)=O)NC(=O)[C@H](CCCCN)NC(=O)[C@H](Cc1c[nH]cn1)NC(=O)[C@H](CCC(=O)O)NC(=O)[C@H](CO)NC(=O)[C@H](CC(C)C)NC(=O)[C@H](CCSC)NC(=O)[C@H](C)NC(=O)[C@H](CCC(=O)O)NC(=O)[C@H](Cc1c[nH]c2ccccc12)NC(=O)[C@H](CC(C)C)NC(=O)[C@H](CCCCN)NC(=O)[C@H](CCC(=O)O)NC(C)=O)C(=O)N[C@@H](CC(N)=O)C(=O)N[C@@H](CC(N)=O)C(N)=O [EBA175_008] (Ac-EKLWEAMLSEHKNNINN-NH2)
- IC50 (HLA-DRB1*1101): > 100 µM
- IC50 (HLA-DRB1*1301; [2]): > 100 µM
- IC50 (HLA-DRB1*1501; [3]): 80.6 µM
- IC50 (HLA-DRB1*0101; [4]): 5.61 µM

Structure (SMILES): CC[C@H](C)[C@H](NC(C)=O)C(=O)N[C@@H](CC(C)C)C(=O)N[C@@H](C)C(=O)N[C@H](C(=O)N[C@@H](C)C(=O)N[C@H](C(=O)N[C@@H](Cc1ccc(O)cc1)C(=O)N[C@@H](CCC(=O)O)C(=O)N[C@@H](CO)C(=O)N[C@@H](CCCNC(=N)N)C(=O)N[C@H](C(=O)N[C@@H](CC(C)C)C(=O)N[C@@H](CCCCN)C(=O)N[C@@H](CCCNC(=N)N)C(=O)N[C@@H](CCCCN)C(=O)N[C@@H](Cc1ccc(O)cc1)C(=O)N[C@@H](CCCCN)C(=O)N[C@@H](CC(N)=O)C(=O)N[C@@H](CCCCN)C(=O)N[C@@H](CC(=O)O)C(=O)N[C@@H](CC(=O)O)C(=O)N[C@@H](CCCCN)C(=O)N[C@@H](CCC(=O)O)C(N)=O)[C@@H](C)CC)[C@@H](C)CC)[C@@H](C)CC [EBA175_010] (Ac-ILAIAIYESRILKRKYKNKDDKE-NH2)
- IC50 (HLA-DRB1*1101): 44.2 µM
- IC50 (HLA-DRB1*0701; [1]): 6.27 µM
- IC50 (HLA-DRB1*1301; [2]): 4.41 µM
- IC50 (HLA-DRB1*1501; [3]): 0.035 µM
- IC50 (HLA-DRB1*0801; [5]): 17.6 µM
- IC50 (HLA-DRB1*0101; [4]): 0.27 µM

Structure (SMILES): CC[C@H](C)[C@H](NC(=O)[C@H](CO)NC(=O)[C@H](CCCCN)NC(=O)[C@H](Cc1ccccc1)NC(=O)[C@H](CCC(=O)O)NC(=O)[C@H](CO)NC(=O)[C@H](Cc1ccc(O)cc1)NC(=O)[C@H](CCSC)NC(=O)[C@H](CCCCN)NC(=O)[C@H](Cc1ccc(O)cc1)NC(=O)[C@H](CC(N)=O)NC(=O)[C@H](CC(N)=O)NC(=O)CNC(=O)[C@H](CCCCN)NC(=O)[C@H](CCC(N)=O)NC(=O)[C@H](Cc1ccc(O)cc1)NC(=O)[C@H](CCC(=O)O)NC(=O)[C@H](CCC(N)=O)NC(=O)[C@H](Cc1ccc(O)cc1)NC(C)=O)C(=O)N[C@@H](CCCCN)C(N)=O [EBA175_012] (Ac-YQEYQKGNNYKMYSEFKSIK-NH2)
- IC50 (HLA-DRB1*0701; [1]): 14 µM
- IC50 (HLA-DRB1*1501; [3]): 29.4 µM
- IC50 (HLA-DRB1*0801; [5]): 33.2 µM
- IC50 (HLA-DRB1*0101; [4]): 0.226 µM

Structure (SMILES): CC[C@H](C)[C@H](NC(=O)[C@H](CC(C)C)NC(=O)[C@H](CCCCN)NC(=O)[C@H](CCCCN)NC(=O)[C@H](CCCCN)NC(=O)[C@H](CCCCN)NC(=O)[C@@H](NC(=O)[C@H](CC(N)=O)NC(=O)[C@H](Cc1ccc(O)cc1)NC(=O)[C@H](CCC(=O)O)NC(=O)[C@H](CC(=O)O)NC(C)=O)[C@@H](C)O)C(=O)N[C@@H](CCCCN)C(=O)N[C@@H](CS)C(=O)N[C@H](C(=O)N[C@@H](CCCCN)C(=O)N[C@@H](CC(N)=O)C(=O)N[C@@H](Cc1c[nH]cn1)C(=O)N[C@@H](CCC(=O)O)C(=O)N[C@@H](CC(N)=O)C(=O)N[C@@H](CC(=O)O)C(=O)N[C@@H](Cc1ccccc1)C(=O)N[C@@H](CC(N)=O)C(N)=O)[C@@H](C)CC [RH5_008] (Ac-DEYNTKKKKLIKCIKNHENDFN-NH2)
- IC50 (HLA-DRB1*1501; [3]): 5.14 µM
- IC50 (HLA-DRB1*0801; [5]): 2.6 µM
- IC50 (HLA-DRB1*0101; [4]): 1 µM

Structure (SMILES): CC[C@H](C)[C@H](NC(=O)[C@H](Cc1ccc(O)cc1)NC(=O)[C@H](CCC(=O)O)NC(=O)[C@H](CC(=O)O)NC(=O)[C@H](Cc1ccc(O)cc1)NC(C)=O)C(=O)N[C@@H](Cc1c[nH]cn1)C(=O)N[C@@H](CCCCN)C(=O)N[C@@H](CC(C)C)C(=O)N[C@H](C(=O)N[C@@H](CC(C)C)C(=O)N[C@@H](CO)C(=O)N[C@H](C(=O)N[C@@H](CCCCN)C(=O)N[C@@H](CO)C(=O)N[C@@H](CCCCN)C(=O)N[C@@H](CC(N)=O)C(=O)N[C@@H](CC(C)C)C(=O)N[C@@H](CC(N)=O)C(=O)N[C@@H](CCCCN)C(=O)N[C@@H](CC(=O)O)C(=O)N[C@@H](CC(C)C)C(=O)N[C@@H](CO)C(N)=O)C(C)C)[C@@H](C)CC [RH5_009] (Ac-YDEYIHKLILSVKSKNLNKDLS-NH2)
- IC50 (HLA-DRB1*1101): 10.5 µM
- IC50 (HLA-DRB1*0701; [1]): 0.381 µM
- IC50 (HLA-DRB1*1301; [2]): 88.8 µM
- IC50 (HLA-DRB1*1501; [3]): 0.01 µM
- IC50 (HLA-DRB1*0801; [5]): 6.46 µM
- IC50 (HLA-DRB1*0101; [4]): 0.043 µM
